In US10793580B2, “Substituted pyrazoloazepin-8-ones and their use as phosphodiesterase inhibitors” (LEO Pharma A/S, priority 2016, dated 2020):
Read-outs that look alike come from different tables or passages of the source.

Biological target: human PDE4D catalytic domain (Homo sapiens (Human), UniProt Q08499)
Assay: PDE4 Assay (TR-FRET, FAM-cAMP cleavage)
Type: biochemical
Conditions: read-out: PDE4 IC50 range
Outline: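 Readout is Tb-to-FAM time-resolved FRET after nanoparticle capture of AMP, the product of cleaving a cAMP/FAM-cAMP mixture by PDE4D catalytic domain (S380-L740) in the presence of titrated compound. Values are IC50 ranges in nM: concentration halving substrate cleavage relative to controls.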

[1] = human PDE4D catalytic domain (UniProt Q08499 [S380-L740]), 50% inhibition of substrate cleavage

human PDE4D catalytic domain, sequence (Q08499 380-740): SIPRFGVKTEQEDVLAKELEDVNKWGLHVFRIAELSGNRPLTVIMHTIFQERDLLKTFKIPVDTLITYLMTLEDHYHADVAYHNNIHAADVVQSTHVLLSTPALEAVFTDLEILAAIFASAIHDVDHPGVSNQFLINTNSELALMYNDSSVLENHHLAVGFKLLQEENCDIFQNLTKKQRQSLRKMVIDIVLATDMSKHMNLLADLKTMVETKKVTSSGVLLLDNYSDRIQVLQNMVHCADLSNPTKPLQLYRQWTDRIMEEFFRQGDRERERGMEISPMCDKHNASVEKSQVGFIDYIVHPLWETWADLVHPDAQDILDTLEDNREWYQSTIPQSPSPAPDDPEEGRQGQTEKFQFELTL

SMILES | IC50 [1] | IC50 (Table 16, Examples 277-296)
CCn1nc(CCCCOC(=O)c2cscn2)c2c1C(=O)NCC1(CCOCC1)C2 [Example 269, 4-(1-ethyl-8-oxo-spiro[6,7-dihydro-4H-pyrazolo[3,4-c]azepine-5,4′-tetrahydropyran]-3-yl)butyl thiazole-4-carboxylate] | < 0.1 µM | –
CCn1nc(CCCCOC(=O)C2CCOCC2)c2c1C(=O)NCC1(CCOCC1)C2 [Example 270, 4-(1-ethyl-8-oxo-spiro[6,7-dihydro-4H-pyrazolo[3,4-c]azepine-5,4′-tetrahydropyran]-3-yl)butyl tetrahydropyran-4-carboxylate] | < 0.1 µM | –
CCn1nc(CCCCOC(=O)c2cnc(C)nc2)c2c1C(=O)NCC1(CCOCC1)C2 [Example 271, 4-(1-ethyl-8-oxo-spiro[6,7-dihydro-4H-pyrazolo[3,4-c]azepine-5,4′-tetrahydropyran]-3-yl)butyl 2-methylpyrimidine-5-carboxylate] | < 0.1 µM | –
CCn1nc(CCCCOC(=O)c2cc(C)n(C)n2)c2c1C(=O)NCC1(CCOCC1)C2 [Example 272, 4-(1-ethyl-8-oxo-spiro[6,7-dihydro-4H-pyrazolo[3,4-c]azepine-5,4′-tetrahydro-pyran]-3-yl)butyl 1,5-dimethylpyrazole-3-carboxylate] | < 0.1 µM | –
CCn1nc(CCCCOC(=O)c2cc(C)nc(C)c2)c2c1C(=O)NCC1(CCOCC1)C2 [Example 273, 4-(1-ethyl-8-oxo-spiro[6,7-dihydro-4H-pyrazolo[3,4-c]azepine-5,4′-tetrahydro-pyran]-3-yl)butyl 2,6-dimethylpyridine-4-carboxylate] | < 0.1 µM | –
CCn1nc(CCCCOC(=O)C2CCN(C(C)=O)CC2)c2c1C(=O)NCC1(CCOCC1)C2 [Example 274, 4-(1-ethyl-8-oxo-spiro[6,7-dihydro-4H-pyrazolo[3,4-c]azepine-5,4′-tetrahydropyran]-3-yl)butyl 1-acetylpiperidine-4-carboxylate] | < 0.1 µM | –
CCn1nc(CCOC(=O)c2cnsc2)c2c1C(=O)NCC1(CCOCC1)C2 [Example 275, 2-(1-ethyl-8-oxo-spiro[6,7-dihydro-4H-pyrazolo[3,4-c]azepine-5,4′-tetrahydropyran]-3-yl)ethyl isothiazole-4-carboxylate] | < 0.1 µM | –
CCn1nc(CCOC(=O)C2CCOCC2)c2c1C(=O)NCC1(CCOCC1)C2 [Example 276, 2-(1-ethyl-8-oxo-spiro[6,7-dihydro-4H-pyrazolo[3,4-c]azepine-5,4′-tetrahydropyran]-3-yl)ethyl tetrahydropyran-4-carboxylate] | 0.1 to 0.5 µM | –
CCn1nc(C[C@@H](C)COC(=O)c2cocn2)c2c1C(=O)NCC1(CCOCC1)C2 [Example 277, [(2R)-3-(1-ethyl-8-oxo-spiro[6,7-dihydro-4H-pyrazolo[3,4-c]azepine-5,4′-tetrahydropyran]-3-yl)-2-methyl-propyl] oxazole-4-carboxylate] | – | < 0.1 µM
CCn1nc(C[C@@H](C)COC(=O)c2ccn(C)n2)c2c1C(=O)NCC1(CCOCC1)C2 [Example 278, [(2R)-3-(1-ethyl-8-oxo-spiro[6,7-dihydro-4H-pyrazolo[3,4-c]azepine-5,4′-tetrahydropyran]-3-yl)-2-methyl-propyl] 1-methylpyrazole-3-carboxylate] | – | < 0.1 µM
CCn1nc(C[C@@H](C)COC(=O)c2cnn(C)c2)c2c1C(=O)NCC1(CCOCC1)C2 [Example 279, [(2R)-3-(1-ethyl-8-oxo-spiro[6,7-dihydro-4H-pyrazolo[3,4-c]azepine-5,4′-tetrahydropyran]-3-yl)-2-methyl-propyl] 1-methylpyrazole-4-carboxylate] | – | < 0.1 µM
CCn1nc(C[C@@H](C)COC(=O)c2cn(C)cn2)c2c1C(=O)NCC1(CCOCC1)C2 [Example 280, [(2R)-3-(1-ethyl-8-oxo-spiro[6,7-dihydro-4H-pyrazolo[3,4-c]azepine-5,4′-tetrahydropyran]-3-yl)-2-methyl-propyl] 1-methylimidazole-4-carboxylate] | – | < 0.1 µM
